# Key:
# Format in all cases: in vivo
# [1] = system: barnyardgrass (Echinochloa crus-galli); assay: Test G Pre-Emergence Protocol; settings: Echinochloa crus-galli, pre-emergence, 312 h, evaluated after 13 days
# Procedure, shortened: (§1)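 Seeds were sown in standard soil and kept one day in a glasshouse (24/16° C day/night, 14 h light, 65% humidity), then sprayed with compound in acetone/water (50:50) containing 0.5% Tween 20 at 15.625, 62.5 or 250 g/ha. Damage was scored after 13 days (0 = none, 100 = total).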
# corn (Zea mays) [2] = assay: Test G Pre-Emergence Protocol; settings: Zea mays, pre-emergence, 312 h, evaluated after 13 days
# Procedure, shortened: as §1
# [3] = system: giant foxtail (Setaria faberi); assay: Test G Pre-Emergence Protocol; settings: Setaria faberi, pre-emergence, 312 h, evaluated after 13 days
# Procedure, shortened: as §1
# [4] = system: ivy-leaved morning glory (Ipomoea hederacea); assay: Test G Pre-Emergence Protocol; settings: Ipomoea, pre-emergence, 312 h, evaluated after 13 days
# Procedure, shortened: as §1
# [5] = system: redroot pigweed (Amaranthus retroflexus); assay: Test G Pre-Emergence Protocol; settings: Amaranthus retroflexus, pre-emergence, 312 h, evaluated after 13 days
# Procedure, shortened: as §1
# [6] = system: velvetleaf (Abutilon theophrasti); assay: Test G Pre-Emergence Protocol; settings: Abutilon theophrasti, pre-emergence, 312 h, evaluated after 13 days
# Procedure, shortened: as §1
# [7] = system: barnyardgrass (Echinochloa crus-galli); assay: Test G Post-Emergence Protocol; settings: Echinochloa crus-galli, post-emergence, 312 h
# Procedure, shortened: (§2)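 Foliar application was made 8 days after sowing, using an aqueous spray of the active in acetone/water (50:50) with 0.5% Tween 20, at doses of 15.625, 62.5 or 250 g/ha. Injury was assessed 13 days later, where 100 meant the plant was fully damaged.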
# corn (Zea mays) [8] = assay: Test G Post-Emergence Protocol; settings: Zea mays, post-emergence, 312 h
# Procedure, shortened: as §2
# [9] = system: giant foxtail (Setaria faberi); assay: Test G Post-Emergence Protocol; settings: Setaria faberi, post-emergence, 312 h
# Procedure, shortened: as §2
# [10] = system: ivy-leaved morning glory (Ipomoea hederacea); assay: Test G Post-Emergence Protocol; settings: Ipomoea, post-emergence, 312 h
# Procedure, shortened: as §2
# [11] = system: redroot pigweed (Amaranthus retroflexus); assay: Test G Post-Emergence Protocol; settings: Amaranthus retroflexus, post-emergence, 312 h
# Procedure, shortened: as §2
# [12] = system: velvetleaf (Abutilon theophrasti); assay: Test G Post-Emergence Protocol; settings: Abutilon theophrasti, post-emergence, 312 h
# Procedure, shortened: as §2
compound,measurement,setting,value
Cc1ccc(NC(=O)[C@@H]2C(=O)N(C)C[C@H]2c2ccc(C(F)(F)F)cc2)c(Cl)c1 (racemic) [Compound 1590],pest or weed control at 15.625 g/ha,"[1]; 15.625 g ai/ha, read-out: Barnyard grass damage rating (100=total damage to plant; 0=no damage to plant)",0%
same,pest or weed control at 62.5 g/ha,"[1]; 62.5 g ai/ha, 100=total damage to plant, 0=no damage to plant, read-out: plant damage rating, Barnyardgrass",0%
same,pest or weed control at 250 g/ha,"[1]; 250 g ai/ha, read-out: Barnyardgrass damage rating (100=total damage to plant; 0=no damage to plant)",60%
same,plant injury at 15.625 g/ha,"corn (Zea mays) [2]; 15.625 g ai/ha, read-out: Corn damage rating (100=total damage to plant; 0=no damage to plant)",0%
same,plant injury at 62.5 g/ha,"corn (Zea mays) [2]; 62.5 g ai/ha, 100=total damage to plant, 0=no damage to plant, read-out: plant damage rating, Corn",0%
same,plant injury at 250 g/ha,"corn (Zea mays) [2]; 250 g ai/ha, read-out: Corn damage rating (100=total damage to plant; 0=no damage to plant)",0%
same,pest or weed control at 15.625 g/ha,"[3]; 15.625 g ai/ha, read-out: Foxtail, Giant damage rating (100=total damage to plant; 0=no damage to plant)",0%
same,pest or weed control at 62.5 g/ha,"[3]; 62.5 g ai/ha, 100=total damage to plant, 0=no damage to plant, read-out: plant damage rating, Foxtail, Giant",50%
same,pest or weed control at 250 g/ha,"[3]; 250 g ai/ha, read-out: Foxtail, Giant damage rating (100=total damage to plant; 0=no damage to plant)",80%
same,pest or weed control at 15.625 g/ha,"[4]; 15.625 g ai/ha, read-out: Morning-glory, Ivy-leaved damage rating (100=total damage to plant; 0=no damage to plant)",0%
same,pest or weed control at 62.5 g/ha,"[4]; 62.5 g ai/ha, 100=total damage to plant, 0=no damage to plant, read-out: plant damage rating, Morningglory, Ivy-leaved",0%
same,pest or weed control at 250 g/ha,"[4]; 250 g ai/ha, read-out: Morningglory, Ivy-leaved damage rating (100=total damage to plant; 0=no damage to plant)",0%
same,pest or weed control at 15.625 g/ha,"[5]; 15.625 g ai/ha, read-out: Pigweed, Redroot damage rating (100=total damage to plant; 0=no damage to plant)",0%
same,pest or weed control at 62.5 g/ha,"[5]; 62.5 g ai/ha, 100=total damage to plant, 0=no damage to plant, read-out: plant damage rating, Pigweed, Redroot",0%
same,pest or weed control at 250 g/ha,"[5]; 250 g ai/ha, read-out: Pigweed, Redroot damage rating (100=total damage to plant; 0=no damage to plant)",0%
same,pest or weed control at 15.625 g/ha,"[6]; 15.625 g ai/ha, read-out: Velvetleaf damage rating (100=total damage to plant; 0=no damage to plant)",0%
same,pest or weed control at 62.5 g/ha,"[6]; 62.5 g ai/ha, 100=total damage to plant, 0=no damage to plant, read-out: plant damage rating, Velvetleaf",0%
same,pest or weed control at 250 g/ha,"[6]; 250 g ai/ha, read-out: Velvetleaf damage rating (100=total damage to plant; 0=no damage to plant)",0%
same,pest or weed control at 15.625 g/ha,"[7]; 15.625 g ai/ha, evaluated after 13 days (100=total damage to plant; 0=no damage to plant), read-out: Barnyardgrass damage rating",0%
same,pest or weed control at 62.5 g/ha,"[7]; 62.5 g ai/ha, evaluated after 13 days, read-out: Barnyardgrass damage rating (100=total damage to plant; 0=no damage to plant)",0%
same,pest or weed control at 250 g/ha,"[7]; 250 g ai/ha, evaluated after 13 days, read-out: damage to plant, Barnyardgrass (100=total damage to plant; 0=no damage to plant)",30%
same,plant injury at 15.625 g/ha,"corn (Zea mays) [8]; 15.625 g ai/ha, evaluated after 13 days (100=total damage to plant; 0=no damage to plant), read-out: Corn damage rating",0%
same,plant injury at 62.5 g/ha,"corn (Zea mays) [8]; 62.5 g ai/ha, evaluated after 13 days, read-out: Corn damage rating (100=total damage to plant; 0=no damage to plant)",0%
same,plant injury at 250 g/ha,"corn (Zea mays) [8]; 250 g ai/ha, evaluated after 13 days, read-out: damage to plant, Corn (100=total damage to plant; 0=no damage to plant)",0%
same,pest or weed control at 15.625 g/ha,"[9]; 15.625 g ai/ha, evaluated after 13 days (100=total damage to plant; 0=no damage to plant), read-out: Foxtail, Giant damage rating",0%
same,pest or weed control at 62.5 g/ha,"[9]; 62.5 g ai/ha, evaluated after 13 days, read-out: Foxtail, Giant damage rating (100=total damage to plant; 0=no damage to plant)",70%
same,pest or weed control at 250 g/ha,"[9]; 250 g ai/ha, evaluated after 13 days, read-out: damage to plant, Foxtail, Giant (100=total damage to plant; 0=no damage to plant)",80%
same,pest or weed control at 15.625 g/ha,"[10]; 15.625 g ai/ha, evaluated after 13 days (100=total damage to plant; 0=no damage to plant), read-out: Morningglory, Ivy-leaved damage rating",0%
same,pest or weed control at 62.5 g/ha,"[10]; 62.5 g ai/ha, evaluated after 13 days, read-out: Morningglory, Ivy-leaved damage rating (100=total damage to plant; 0=no damage to plant)",20%
same,pest or weed control at 250 g/ha,"[10]; 250 g ai/ha, evaluated after 13 days, read-out: damage to plant, Morningglory, Ivy-leaved (100=total damage to plant; 0=no damage to plant)",30%
same,pest or weed control at 15.625 g/ha,"[11]; 15.625 g ai/ha, evaluated after 13 days (100=total damage to plant; 0=no damage to plant), read-out: Pigweed, Redroot damage rating",0%
same,pest or weed control at 62.5 g/ha,"[11]; 62.5 g ai/ha, evaluated after 13 days, read-out: Pigweed, Redroot damage rating (100=total damage to plant; 0=no damage to plant)",0%
same,pest or weed control at 250 g/ha,"[11]; 250 g ai/ha, evaluated after 13 days, read-out: damage to plant, Pigweed, Redroot (100=total damage to plant; 0=no damage to plant)",0%
same,pest or weed control at 15.625 g/ha,"[12]; 15.625 g ai/ha, evaluated after 13 days (100=total damage to plant; 0=no damage to plant), read-out: Velvetleaf damage rating",0%
same,pest or weed control at 62.5 g/ha,"[12]; 62.5 g ai/ha, evaluated after 13 days, read-out: Velvetleaf damage rating (100=total damage to plant; 0=no damage to plant)",0%
same,pest or weed control at 250 g/ha,"[12]; 250 g ai/ha, evaluated after 13 days, read-out: damage to plant, Velvetleaf (100=total damage to plant; 0=no damage to plant)",0%
